The text below walks through data of patent US4613610A, “Cholesterol biosynthesis inhibiting pyrazole analogs of mevalonolactone and its derivatives” (Sandoz Pharmaceuticals Corp., priority 1985, dated 1986).

Read-outs that look alike come from different tables or passages of the source.

The subject of test [1] is 3β-hydroxysterol synthesis (cholesterol biosynthesis). The test is described as follows: Test B. In Vivo Cholesterol Biosynthesis Inhibition Test. Further details: species or system rat (male Wistar Royal Hart). The following applies: Rattus norvegicus, read-out: ED50 (50% inhibition of 3β-hydroxysterol synthesis).
Procedure: In vivo studies utilize male Wistar Royal Hart rats weighing 150±20 g. which have been kept for 7-10 days on an altered light cycle (6:30 A.M.-6:30 P.M. dark) housed two per cage and fed powdered Purina Rat Chow and water ad libitum. Three hours before the diurnal maximum of cholesterol synthesis at mid-dark, the rats are orally administered the test substance (e.g., 0.01-200 mg./kg. body weight) dissolved or as a suspension in 0.5% carboxymethylcellulose in a volume of 1 ml./100 g. body weight. Controls receive vehicle alone. One hour after receiving the test substance (or the vehicle alone), the rats are injected intraperitoneally with about 25 μCi/100 g. body weight of sodium [1-^14 C]acetate 1-3 mCi/mmol. Two hours after mid-dark, blood samples are obtained under sodium hexobarbitol anesthesia, and the serum is separated by centrifugation.
Serum samples are saponified and neutralized, and the 3β-hydroxysterols are precipitated with digitonin basically as described in Sperry et al., J. Biol. Chem. 187, 97 (1950). The [^14 C]digitonides are then counted by liquid scintillation spectrometry. After correcting for efficiencies, the results are calculted in nCi (nanocuries)of 3β-hydroxysterol formed per 100 ml. of serum. Inhibition of 3β-hydroxysterol synthesis is calculated from the reduction in the nCi of 3β-hydroxysterols formed from test groups compared to controls.
ED50 is the dose of the test substance calculated or observed to produce a 50% inhibition of 3β-hydroxysterol synthesis.
The target of the next test is T1, HMG-CoA reductase (Rattus norvegicus, UniProt P51639).
T1 construct: the microsomes are the source of the HMG-CoA reductase enzyme; from tissue; host or cells: liver microsomes of male Sprague-Dawley rats (150-225 g)
T1 sequence (P51639 1-887): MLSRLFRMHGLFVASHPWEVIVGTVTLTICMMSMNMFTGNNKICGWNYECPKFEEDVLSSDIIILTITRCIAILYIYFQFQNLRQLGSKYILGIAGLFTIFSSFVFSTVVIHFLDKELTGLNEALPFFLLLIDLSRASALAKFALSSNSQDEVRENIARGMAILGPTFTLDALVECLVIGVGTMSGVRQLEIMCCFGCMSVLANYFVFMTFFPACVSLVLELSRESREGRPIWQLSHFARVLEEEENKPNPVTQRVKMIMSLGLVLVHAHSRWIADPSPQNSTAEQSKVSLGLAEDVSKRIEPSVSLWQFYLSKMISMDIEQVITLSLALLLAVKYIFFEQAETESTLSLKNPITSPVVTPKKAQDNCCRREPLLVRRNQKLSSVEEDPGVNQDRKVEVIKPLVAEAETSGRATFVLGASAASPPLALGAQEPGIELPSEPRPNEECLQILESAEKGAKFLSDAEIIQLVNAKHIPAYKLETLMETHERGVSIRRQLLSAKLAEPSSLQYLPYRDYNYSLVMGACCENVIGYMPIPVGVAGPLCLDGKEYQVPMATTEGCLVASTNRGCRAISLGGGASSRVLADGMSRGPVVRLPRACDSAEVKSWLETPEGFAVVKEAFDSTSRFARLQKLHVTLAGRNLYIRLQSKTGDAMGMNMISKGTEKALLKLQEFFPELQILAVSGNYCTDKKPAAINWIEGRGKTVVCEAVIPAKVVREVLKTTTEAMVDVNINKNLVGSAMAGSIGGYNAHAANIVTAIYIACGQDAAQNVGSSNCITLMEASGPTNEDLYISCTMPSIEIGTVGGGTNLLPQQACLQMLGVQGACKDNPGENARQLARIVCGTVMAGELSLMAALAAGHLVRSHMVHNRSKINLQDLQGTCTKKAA
As to the kind of experiment: Test A. In Vitro Microsomal Assay of HMG-CoA Reductase Inhibition. Type of test: biochemical, rat (male Sprague-Dawley rat liver microsomes). As to the method: Test A. In Vitro Microsomal Assay of HMG-CoA Reductase Inhibition:
200 μl. aliquots (1.08-1.50 mg./ml.) of rat liver microsomal suspensions, freshly prepared from male Sprague-Dawley rats (150-225 g. body weight), in Buffer A with 10 mmol. dithiothreitol are incubated with 10 μl. of a solution of the test substance in dimethylacetamide and assayed for HMG-CoA reductase activity as described in Ackerman et al., J. Lipid Res. 18, 408-413 (1977), the concentration of the test substance in the assay system being 0.0001-2,000 μmolar. In the assay the microsomes are the source of the HMG-CoA reductase enzyme which catalyzes the reduction of HMG-CoA to mevalonate. The assay employs a chloroform extraction to separate the product, [^14 C]mevalonolactone, formed by the HMG-CoA reductase recution of the substrate, [^14 C]HMG-CoA. [^3 H]mevalonolactone is added as an internal reference. Inhibition of HMG-CoA reductase is calculated from the decrease in specific activity ([^14 C/^3 H]mevalonate) of test groups compared to controls.
IC50 is the concentration of the test substance in the assay system calculated or observed to produce a 50% inhibition of HMG-CoA reductase activity.

Setting [2] is: male rats, oral, in 0.5% carboxymethylcellulose, [1-14C]acetate i.p. 1 h later, serum, calculated or observed.
[3] abbreviates: rat liver microsomal suspensions, test substance 0.0001-2,000 μmolar, calculated or observed, read-out: IC50 (50% inhibition of HMG-CoA reductase activity).

Turning to `CC(C)n1nc(-c2ccccc2)c(-c2ccc(F)cc2)c1/C=C/[C@@H](O)C[C@@H](O)CC(=O)O` (relative stereo) [Example 7, Sodium erythro-(E)-3,5-dihydroxy-7-[4'-(4"-fluorophenyl)-1'-(1"-methylethyl)-3'-phenyl-1H-pyrazol-5'-yl]hept-6-enoate], the ED50 in test [1] (setting [2]) was 0.06 mg/kg. On HMG-CoA reductase (setting [3]), the IC50 is 0.04 µM.

Take `CC(C)c1c(/C=C/[C@@H]2C[C@@H](O)CC(=O)O2)c(-c2ccc(F)cc2)nn1-c1ccccc1` (relative stereo) [Example 11, (E)-Trans-6-(2'-[3"-(4'"-fluorophenyl)-5"-(1'"-methylethyl)-1"-phenyl-1H-pyrazol-4"-yl]ethenyl)-4-hydroxy-3,4,5,6-tetrahydro-2H-pyran-2-one]: the IC50 on HMG-CoA reductase (setting [3]) is 0.26 µM. In the case of `CC(C)c1nn(-c2ccccc2)c(-c2ccc(F)cc2)c1/C=C/[C@@H](O)C[C@@H](O)CC(=O)O` (relative stereo) [Example 14, Sodium erythro-(±)-(E)-3,5-dihydroxy-7-[5'-(4"-fluorophenyl)-3'-(1"-methylethyl)-1'-phenyl-1H-pyrazol-4'-yl]hept-6-enoate], the ED50 in test [1] (setting [2]) was 0.013 mg/kg. Also, the IC50 at HMG-CoA reductase (setting [3]) is 0.02 µM. In the case of `CC[C@H](C)C(=O)O[C@H]1CCC=C2C=C[C@H](C)[C@H](CC[C@@H]3C[C@@H](O)CC(=O)O3)[C@H]21` [Compactin, reference compound], the ED50 in test [1] (setting [2]) was 3.5 mg/kg. Consider `CC(C)n1nc(-c2ccccc2)c(-c2ccc(F)cc2)c1/C=C/[C@@H]1C[C@@H](O)CC(=O)O1` [Example 1, (E)-Trans-6S-(2'-[4"-(4'"-fluorophenyl)-1"-(1'"-methylethyl)-3"-phenyl-1H-pyrazol-5"-yl]ethenyl)-4R-hydroxy-3,4,5,6-tetrahydro-2H-pyran-2-one], for which the IC50 on HMG-CoA reductase (setting [3]) is 0.08 µM.

With `CC(C)n1nc(-c2ccccc2)c(-c2ccc(F)cc2)c1/C=C\[C@@H]1C[C@@H](O)CC(=O)O1` [Example 2, (Z)-Trans-6S-(2'-[4"-(4'"-fluorophenyl)-1"-(1'"-methylethyl)-3"-phenyl-1H-pyrazol-5"-yl]ethenyl)-4R-hydroxy-3,4,5,6-tetrahydro-2H-pyran-2-one], the IC50 on HMG-CoA reductase (setting [3]) is 103 µM. For `CC(C)n1nc(-c2ccccc2)c(-c2ccc(F)cc2)c1/C=C/[C@@H](O)C[C@@H](O)CC(=O)O` [Example 3, Sodium erythro-(E)-3R,5S-dihydroxy-7-[4'-(4"-fluorophenyl)-1'-(1"-methylethyl)-3'-phenyl-1H-pyrazol-5'-yl]hept-6-enoate], the ED50 in test [1] (setting [2]) is 0.05 mg/kg. Also, the concentration for half-maximal inhibition (IC50) on HMG-CoA reductase (setting [3]) was 0.06 µM.

Regarding `CC[C@H](C)C(=O)O[C@H]1C[C@@H](C)C=C2C=C[C@H](C)[C@H](CC[C@@H]3C[C@@H](O)CC(=O)O3)[C@H]21` [Mevinolin, reference compound], in test [1] (po, 1 h), the ED50 turned out to be 0.41 mg/kg. Moreover, half-maximal inhibition on HMG-CoA reductase (IC50) was put at 0.14 µM.
